Measured values published in patent publication US8822549B2, “Buffered oxygen therapeutic” (priority 2011, dated 2014).

Key:
[1] = test system: hypoxic tumors; experiment: Published studies: fluorocarbons as O2 delivery agents to sensitize hypoxic tumors to radiation therapy; format: in vivo; details: versus the liquid fluorocarbons fluosol and perfluoroctylbromide
Method: In these studies, fluorocarbons were administered systemically and oxygen was administered via inhalation to sensitize hypoxic tumors to radiation therapy. PFOB was effective at less than 1/100th the dose of the liquid fluorocarbons fluosol and […].

[2] = test system: hypoxic tumors; details: administered systemically, oxygen via inhalation; published studies; cited from earlier work

For FC(F)(F)C(F)(F)C(F)(F)C(F)(F)C(F)(F)C(F)(F)C(F)(F)C(F)(F)Br [PFOB, perfluoroctylbromide], the “effective dose as a fraction of the dose of liquid fluorocarbons” value [1] is given as “less than 1/100”, the “Volume (dose as O2 delivery agent)” value [2] is given as 2 to 15 mL/kg and the “g/kg (fluorocarbon dose as O2 delivery agent)” value [2] is given as 2 to 15 g/kg.
